Source: US20220241249A1, “PHARMACEUTICAL COMPOSITION AND KIT CONTAINING NOVEL PENAM DERIVATIVE OR SALT THEREOF AND ONE OR MORE COMPOUNDS SELECTED FROM beta-LACTAMASE INHIBITORY COMPOUND AND ANTIBACTERIAL COMPOUND OR SALTS THEREOF” (priority 2019, published 2022)
In brackets after ≈: the same amount, converted by molar mass.

Columns and labels:
[1] = system: AmpC-derepressed Pseudomonas aeruginosa mutant strain (S-3028); assay: Antibacterial activity evaluation test, MIC by broth microdilution (CLSI); format: cell-based; settings: Pseudomonas aeruginosa
In short: (§1)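 Colonies grown overnight on Mueller Hinton agar, suspended to 0.5 McFarland and diluted 10-fold as inoculum. Incubation in cation-adjusted Mueller Hinton broth with test compound at 35° C for 16–20 h. MIC (μg/mL) is the lowest concentration with no visible growth.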

[2] = system: CTX-M-15-containing Escherichia coli strain (TK-1747); assay: as above; format: cell-based; settings: Escherichia coli
In short: as §1

[3] = system: GES-19 and GES-20-containing Pseudomonas aeruginosa strain (S-3759); assay: as above; format: cell-based; settings: Pseudomonas aeruginosa
In short: as §1

[4] = system: IMP-1-containing Pseudomonas aeruginosa strain (S-2838); assay: as above; format: cell-based; settings: Pseudomonas aeruginosa
In short: as §1

[5] = system: KPC-2-containing Klebsiella pneumoniae strain (Y-995); assay: as above; format: cell-based; settings: Klebsiella pneumoniae
In short: as §1

[6] = system: NDM-1-containing Klebsiella pneumoniae strain (Y-1007); assay: as above; format: cell-based; settings: Klebsiella pneumoniae
In short: as §1

[7] = system: OXA-48-containing Klebsiella pneumoniae strain (Y-1062); assay: as above; format: cell-based; settings: Klebsiella pneumoniae
In short: as §1

[8] = system: Pseudomonas aeruginosa strain ATCC27853; assay: as above; format: cell-based; settings: Pseudomonas aeruginosa, ATCC27853
In short: as §1

[9] = system: VIM-2-containing Pseudomonas aeruginosa strain (S-3779); assay: as above; format: cell-based; settings: Pseudomonas aeruginosa
In short: as §1

[10] = system: multidrug-resistant Pseudomonas aeruginosa strain (S-2838 strain); assay: Test for protection against systemic infection in mouse with multidrug-resistant Pseudomonas aeruginosa; format: in vivo; settings: sc, 72 h, read-out: survival rate 3 days after the inoculation with bacteria
Procedure: As mice, ICR male SPF mice (4 weeks old: 10 mice per group) were used. Clinically isolated multidrug-resistant Pseudomonas aeruginosa strain (S-2838 strain) cultured overnight on a Mueller-Hinton agar plate at 37° C. was cultured on a cation-adjusted Mueller Hinton medium for 5 hours, and then diluted 20-fold with a 10% mucin/phosphate buffer, thereby preparing an inoculum. An infection was induced by intraperitoneally inoculating the mice with the inoculum at 0.5 mL (about 10^6 CFU/mouse). Each test compound was dissolved in physiological saline, and 1 hour after the infection, the compound was subcutaneously administered once to the mice at 40 mg/kg. The control group was administered with the same amount of physiological saline used as a vehicle. The number of surviving mice was recorded 3 days after the infection.
A test for protection against systemic infection in a mouse with multidrug-resistant Pseudomonas aeruginosa was performed in the same manner as in Test Example 2.

| SMILES | MIC [1] [µg/mL] | MIC [2] [µg/mL] | MIC [3] [µg/mL] | MIC [4] [µg/mL] | MIC [5] [µg/mL] | MIC [6] [µg/mL] | MIC [7] [µg/mL] | MIC [8] [µg/mL] | MIC [9] [µg/mL] | responders at 40 mg/kg [10] [%] |
| --- | --- | --- | --- | --- | --- | --- | --- | --- | --- | --- |
| CC(C)(O/N=C(\C(=O)NC1C(=O)N2C[C@@](C(=O)O)(N3CCN(NC(=O)/C(=N\O)c4ccc(O)c(O)c4Cl)C3=O)S[C@H]12)c1csc(N)n1)C(=O)O (stereo partly shown) [Example 117] | 0.25 (≈ 0.331 µM) | 0.12 (≈ 0.159 µM) | 2 (≈ 2.65 µM) | 2 (≈ 2.65 µM) | 0.25 (≈ 0.331 µM) | < 0.06 | 0.5 (≈ 0.661 µM) | 2 (≈ 2.65 µM) | 0.5 (≈ 0.661 µM) | ≥ 90 |
| Nc1nc(/C(=N/OC2(C(=O)O)CC2)C(=O)N[C@@H]2C(=O)N3C[C@@](C(=O)O)(N4CCN(NC(=O)CCNC(=O)C(=O)c5ccc(O)c(O)c5Cl)C4=O)S[C@H]23)cs1 [Example 31, (3R,5R,6R)-6-((Z)-2-(2-aminothiazol-4-yl)-2-((1-carboxycyclopropoxy)imino)acetamido)-3-(3-(3-(2-(2-chloro-3,4-dihydroxyphenyl)-2-oxoacetamido)propanamido)-2-oxoimidazolidin-1-yl)-7-oxo-4-thia-1-azabicyclo[3.2.0]heptane-3-carboxylic acid] | < 0.06 | 1 (≈ 1.23 µM) | 0.5 (≈ 0.617 µM) | 1 (≈ 1.23 µM) | 0.12 (≈ 0.148 µM) | 0.12 (≈ 0.148 µM) | 1 (≈ 1.23 µM) | 0.25 (≈ 0.309 µM) | 0.25 (≈ 0.309 µM) | ≥ 90 |
| Nc1nc(/C(=N/OC2(C(=O)O)CCC2)C(=O)N[C@@H]2C(=O)N3C[C@@](C(=O)O)(N4CCN(NC(=O)C(=O)c5ccc(O)c(O)c5Cl)C4=O)S[C@H]23)cs1 [Example 19, (3R,5R,6R)-6-((Z)-2-(2-aminothiazol-4-yl)-2-((-1-carboxycyclobutoxy)imino)acetamido)-3-(3-(2-(2-chloro-3,4-dihydroxyphenyl)-2-oxoacetamido)-2-oxoimidazolidin-1-yl)-7-oxo-4-thia-1-azabicyclo[3.2.0]heptane-3-carboxylic acid] | 2 (≈ 2.66 µM) | 0.5 (≈ 0.664 µM) | 0.25 (≈ 0.332 µM) | 0.25 (≈ 0.332 µM) | 0.25 (≈ 0.332 µM) | < 0.06 | 0.12 (≈ 0.159 µM) | 0.25 (≈ 0.332 µM) | 0.25 (≈ 0.332 µM) | ≥ 90 |
| CC(C)[C@H](O/N=C(\C(=O)NC1C(=O)N2C[C@@](C(=O)O)(N3CCN(NC(=O)C(=O)c4ccc(O)c(O)c4Cl)C3=O)S[C@H]12)c1csc(N)n1)C(=O)O (stereo partly drawn) [Example 114, (3R,5R,6R)-6-((Z)-2-(2-aminothiazol-4-yl)-2-(((S)-1-carboxy-2-methylpropoxy)imino)-acetamido)-3-(3-(2-(2-chloro-3,4-dihydroxy-phenyl)-2-oxoaceta-mido)-2-oxoimidazol-idin-1-yl)-7-oxo-4-thia-1-azabicyclo[3.2.0]-heptane-3-carboxylic acid] | 1 (≈ 1.32 µM) | 0.25 (≈ 0.331 µM) | 2 (≈ 2.65 µM) | 4 (≈ 5.3 µM) | 0.25 (≈ 0.331 µM) | < 0.06 | 0.25 (≈ 0.331 µM) | 2 (≈ 2.65 µM) | 1 (≈ 1.32 µM) | ≥ 90 |
